According to PMC11672637, “7-O-Carboxylic Acid-Substituted 3-O-Alkyl Difluoroquercetin; An Aztreonam-Potentiating Agent Against Carbapenemase-Producing Pseudomonas aeruginosa Through Simultaneous Inhibition of Metallo-β-Lactamase and Efflux Pump” (Antibiotics, 2024):

Columns and labels:
[1] = test system: efflux pump activity in P. aeruginosa (PA-017, blaNDM); test: EtBr accumulation, inhibition of efflux pump activity; assay type: cell-based; conditions: EtBr fluorescence compared with positive control CCCP
Method: The NDM-producing P. aeruginosa clinical isolate (PA-017, blaNDM) (5 mL, LB medium) was grown to reach the mid-log phase. After centrifugation at 3500 rpm for 15 min, the bacterial pellet was washed twice with PBS and resuspended to OD600 = 0.3 in PBS. To each well of a flat-bottomed black 96-well plate, 182 µL of the bacterial suspension, 4 µL of glucose [final concentration = 0.4% (w/v)], 4 µL of the synthesized compounds or positive control CCCP, and 10 µL of EtBr (final concentration = 1 µg/mL) were added. The plate was incubated at 37 °C, and fluorescence emission from EtBr (λex 480 nm/λem 630 nm) was recorded every 2 min (for 60 min) using a Cytation 5 imaging multi-mode reader (BioTek Instruments, Inc., Winooski, VT, USA).

NDM-1 = target: T1, NDM-1 (Klebsiella pneumoniae, UniProt C7C422); test: β-lactamase inhibition assay (imipenem); assay type: biochemical; conditions: imipenem substrate; read-out: BLi, IC50 NDM-1
T1 construct: purchased RayBiotech, Inc. 230-00554
T1 sequence (C7C422 29-270, looked up, species assumed): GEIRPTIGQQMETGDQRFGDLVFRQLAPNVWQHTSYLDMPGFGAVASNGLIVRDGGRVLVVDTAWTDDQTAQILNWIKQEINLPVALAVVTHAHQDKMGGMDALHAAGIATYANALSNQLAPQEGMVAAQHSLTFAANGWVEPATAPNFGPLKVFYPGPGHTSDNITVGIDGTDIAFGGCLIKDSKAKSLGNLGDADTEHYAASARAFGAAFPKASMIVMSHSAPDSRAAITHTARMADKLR
Method: (§1) Recombinant AmpC, OXA-48 (residues 23–265) and VIM-2 (residues 27–266) were prepared from Escherichia coli based on previously established protocols. KPC-2 and NDM-1 are commercially available from LifeSpan Biosciences, Inc., Seattle, WA, USA (LS-G26598) and RayBiotech, Inc., Peachtree Corners, GA, USA (230-00554), respectively. For β-lactamase inhibition assay, in a 96-well plate, 70–0.1 μM (in PBS) of the synthesized compounds (1~14) (100 μL) were mixed with diluted β-lactamase stock (2% DMSO in 200 μL). In a separate 96-well plate, a substrate of AmpC, KPC-2, OXA-48, and VIM-2 (nitrocefin) and NDM-1 (imipenem) were added into each well (final concentrations of 70 μM for nitrocefin and 100 μM for imipenem). After incubation at 37 °C for 20 min, the mixture of the synthesized compounds (1~14) and β-lactamase in one plate was added to the substrate in the other plate. Enzymatic hydrolysis of the substrate was then monitored by a Cytation 5 imaging multimode reader (BioTek Instruments Inc., Winooski, VT, USA) at 486 nm and 300 nm for nitrocefin and imipenem, respectively, for 15 min. The rates of hydrolysis in the presence of the inhibitors were determined when the reaction rate plateaued. Comparison of the enzymatic hydrolysis rates in the presence and the absence of inhibitors (100%) provided the percentage of enzyme inhibition at each concentration of the synthesized compounds. The IC50 values were obtained after non-linear regression (sigmoidal dose-responses) by GraphPad Prism 5 (GraphPad Software, Boston, MA, USA).

VIM-2 = target: T2, VIM-2 (Escherichia coli, UniProt Q5U7L7); test: β-lactamase inhibition assay (nitrocefin); assay type: biochemical; conditions: nitrocefin substrate; read-out: BLi, IC50 VIM-2
T2 construct: VIM-2 (residues 27–266); made in house; host or cells: Escherichia coli
Method: as §1

KPC-2 = target: T3, KPC-2 (Klebsiella pneumoniae, UniProt Q9F663); test: β-lactamase inhibition assay (nitrocefin); assay type: biochemical; conditions: nitrocefin substrate; read-out: BLi, IC50 KPC-2
T3 construct: purchased LifeSpan Biosciences, Inc. LS-G26598
T3 sequence (Q9F663 25-293, looked up, species assumed): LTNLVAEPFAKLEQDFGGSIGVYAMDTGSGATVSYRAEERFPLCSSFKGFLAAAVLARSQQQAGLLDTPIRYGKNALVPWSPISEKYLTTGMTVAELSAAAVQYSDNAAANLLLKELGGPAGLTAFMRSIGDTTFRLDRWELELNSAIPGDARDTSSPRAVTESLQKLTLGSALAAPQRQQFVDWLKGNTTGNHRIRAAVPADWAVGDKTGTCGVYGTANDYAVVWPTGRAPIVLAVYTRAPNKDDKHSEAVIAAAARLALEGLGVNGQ
Method: as §1

AmpC = test: β-lactamase inhibition assay (nitrocefin); assay type: biochemical; conditions: nitrocefin substrate; read-out: BLi, IC50 AmpC
Method: as §1

OXA-48 = target: T4, OXA-48 (Klebsiella pneumoniae, UniProt Q6XEC0); test: β-lactamase inhibition assay (nitrocefin); assay type: biochemical; conditions: nitrocefin substrate; read-out: BLi, IC50 OXA-48
T4 construct: OXA-48 (residues 23–265); made in house; host or cells: Escherichia coli
T4 sequence (Q6XEC0 23-265 limits assumed): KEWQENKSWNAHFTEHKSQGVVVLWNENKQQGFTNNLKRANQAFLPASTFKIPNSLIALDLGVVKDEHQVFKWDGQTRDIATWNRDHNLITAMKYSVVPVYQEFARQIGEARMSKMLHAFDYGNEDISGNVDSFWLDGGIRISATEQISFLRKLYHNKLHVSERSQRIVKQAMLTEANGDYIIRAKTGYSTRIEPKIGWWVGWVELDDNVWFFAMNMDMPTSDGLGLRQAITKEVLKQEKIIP
Method: as §1

[2] = test system: NDM-1-Producing P. aeruginosa (PA-017, blaNDM); test: MIC / checkerboard with ATM; assay type: cell-based; design: key to Susceptibility category: S: susceptible; I: intermediate; R: resistant; conditions: PA-017; for MIC: Pseudomonas aeruginosa, compound alone, read-out: MIC, Cmpd
PA-014, blaGES = test: MIC / checkerboard with ATM; assay type: cell-based, P. aeruginosa; design: key to Susceptibility category: S: susceptible; I: intermediate; R: resistant; conditions: PA-014; Table S2
PA-034, blaNDM = test: MIC / checkerboard with ATM; assay type: cell-based, P. aeruginosa; design: key to Susceptibility category: S: susceptible; I: intermediate; R: resistant; conditions: PA-034; Table S2
PA-032, blaIMP = test: MIC / checkerboard with ATM; assay type: cell-based, P. aeruginosa; design: key to Susceptibility category: S: susceptible; I: intermediate; R: resistant; conditions: PA-032; Table S2
PA-029, blaIMP = test: MIC / checkerboard with ATM; assay type: cell-based, P. aeruginosa; design: key to Susceptibility category: S: susceptible; I: intermediate; R: resistant; conditions: PA-029; Table S2
PA-031, blaNDM = test: MIC / checkerboard with ATM; assay type: cell-based, P. aeruginosa; design: key to Susceptibility category: S: susceptible; I: intermediate; R: resistant; conditions: PA-031; Table S2
PA-028, blaNDM = test: MIC / checkerboard with ATM; assay type: cell-based, P. aeruginosa; design: key to Susceptibility category: S: susceptible; I: intermediate; R: resistant; conditions: PA-028; Table S2
PA-009, blaGES = test: MIC / checkerboard with ATM; assay type: cell-based, P. aeruginosa; design: key to Susceptibility category: S: susceptible; I: intermediate; R: resistant; conditions: PA-009; Table S2
PA-002, blaIMP = test: MIC / checkerboard with ATM; assay type: cell-based, P. aeruginosa; design: key to Susceptibility category: S: susceptible; I: intermediate; R: resistant; conditions: PA-002, Table S2
PA-042, blaIMP/NDM = test: MIC / checkerboard with ATM; assay type: cell-based, P. aeruginosa; design: key to Susceptibility category: S: susceptible; I: intermediate; R: resistant; conditions: PA-042, Table S2
PA-030, blaIMP = test: MIC / checkerboard with ATM; assay type: cell-based, P. aeruginosa; design: key to Susceptibility category: S: susceptible; I: intermediate; R: resistant; conditions: PA-030; Table S2
PA-026, blaNDM = test: MIC / checkerboard with ATM; assay type: cell-based, P. aeruginosa; design: key to Susceptibility category: S: susceptible; I: intermediate; R: resistant; conditions: PA-026, Table S2
PA-016, blaIMP = test: MIC / checkerboard with ATM; assay type: cell-based, P. aeruginosa; design: key to Susceptibility category: S: susceptible; I: intermediate; R: resistant; conditions: PA-016; Table S2
PA-038, blaNDM = test: MIC / checkerboard with ATM; assay type: cell-based, P. aeruginosa; design: key to Susceptibility category: S: susceptible; I: intermediate; R: resistant; conditions: PA-038; Table S2
PA-033, blaNDM = test: MIC / checkerboard with ATM; assay type: cell-based, P. aeruginosa; design: key to Susceptibility category: S: susceptible; I: intermediate; R: resistant; conditions: PA-033; Table S2
PA-027, blaIMP = test: MIC / checkerboard with ATM; assay type: cell-based, P. aeruginosa; design: key to Susceptibility category: S: susceptible; I: intermediate; R: resistant; conditions: PA-027; Table S2
PA-044, blaNDM = test: MIC / checkerboard with ATM; assay type: cell-based, P. aeruginosa; design: key to Susceptibility category: S: susceptible; I: intermediate; R: resistant; conditions: PA-044; Table S2
PA-035, blaGES = test: MIC / checkerboard with ATM; assay type: cell-based, P. aeruginosa; design: key to Susceptibility category: S: susceptible; I: intermediate; R: resistant; conditions: PA-035, Table S2
PA-041, blaNDM = test: MIC / checkerboard with ATM; assay type: cell-based, P. aeruginosa; design: key to Susceptibility category: S: susceptible; I: intermediate; R: resistant; conditions: PA-041; Table S2
PA-021, blaIMP = test: MIC / checkerboard with ATM; assay type: cell-based, P. aeruginosa; design: key to Susceptibility category: S: susceptible; I: intermediate; R: resistant; conditions: PA-021; Table S2
PA-040, blaNDM = test: MIC / checkerboard with ATM; assay type: cell-based, P. aeruginosa; design: key to Susceptibility category: S: susceptible; I: intermediate; R: resistant; conditions: PA-040; Table S2
PA-037, blaIMP/NDM = test: MIC / checkerboard with ATM; assay type: cell-based, P. aeruginosa; design: key to Susceptibility category: S: susceptible; I: intermediate; R: resistant; conditions: PA-037; Table S2
PA-036, blaNDM = test: MIC / checkerboard with ATM; assay type: cell-based, P. aeruginosa; design: key to Susceptibility category: S: susceptible; I: intermediate; R: resistant; conditions: PA-036; Table S2
PA-025, blaNDM = test: MIC / checkerboard with ATM; assay type: cell-based, P. aeruginosa; design: key to Susceptibility category: S: susceptible; I: intermediate; R: resistant; conditions: PA-025; Table S2
PA-003, blaVIM = test: MIC / checkerboard with ATM; assay type: cell-based, P. aeruginosa; design: key to Susceptibility category: S: susceptible; I: intermediate; R: resistant; conditions: PA-003, Table S2
PA-039, blaNDM = test: MIC / checkerboard with ATM; assay type: cell-based, P. aeruginosa; design: key to Susceptibility category: S: susceptible; I: intermediate; R: resistant; conditions: PA-039; Table S2
[3] = Pseudomonas aeruginosa, read-out: MIC value

`O=C(O)COc1cc(O)c2c(=O)c(OCCC3CCCC3)c(-c3ccc(F)c(F)c3)oc2c1` [Compound 6, 2-((3-(2-Cyclopentylethoxy)-2-(3,4-difluorophenyl)-5-hydroxy-4-oxo-4H-chromen-7-yl)oxy)acetic Acid] was tested, and the “EPi (inhibition of efflux pump activity)” value [1] was “↑ ^g”, the IC50 (NDM-1) was 16.1 ± 1.1 µM and the IC50 (VIM-2) was 37.3 ± 0.6 µM. For the same compound, the IC50 (KPC-2) was greater than 50 µM, the IC50 (AmpC) was greater than 50 µM and the IC50 (OXA-48) was greater than 100 µM. The “FD (fold decrease in the MIC of ATM upon combination with the compound)” value [2] was 4 and the MIC [2] was greater than 256 mg/L.
`CC(C)(C)CCOc1c(-c2ccc(F)c(F)c2)oc2cc(OCC(=O)N3CCCCC3)cc(O)c2c1=O` [Compound 10, 2-(3,4-Difluorophenyl)-3-(3,3-dimethylbutoxy)-5-hydroxy-7-(2-oxo-2-(piperidin-1-yl)ethoxy)-4H-chromen-4-one] was tested, and the “EPi (inhibition of efflux pump activity)” value [1] was “- ^f”, the IC50 (NDM-1) was greater than 50 µM and the IC50 (VIM-2) was greater than 100 µM. It also gave an IC50 (KPC-2) greater than 50 µM, an IC50 (AmpC) greater than 50 µM and an IC50 (OXA-48) greater than 50 µM. For the same compound, the “FD (fold decrease in the MIC of ATM upon combination with the compound)” value [2] was 1 and the MIC [2] was greater than 256 mg/L.
In the case of `O=c1c(OCCC2CCCC2)c(-c2ccc(F)c(F)c2)oc2cc(O)cc(O)c12` [Compound 2], the “EPi (inhibition of efflux pump activity)” value [1] is reported as “↑↑↑ ^e”, the IC50 (AmpC) is reported as 21 ± 2.1 µM and the “FD (fold decrease in the MIC of ATM upon combination with the compound)” value [2] is reported as 2. It also gave an MIC [2] greater than 256 mg/L.
`O=C(O)CC(Oc1cc(O)c2c(=O)c(OCCC3CCCCC3)c(-c3ccc(F)c(F)c3)oc2c1)C(=O)O` (stereo not drawn) [Compound 4, 2-((3-(2-Cyclohexylethoxy)-2-(3,4-difluorophenyl)-5-hydroxy-4-oxo-4H-chromen-7-yl)oxy)succinic Acid] was tested, and the “EPi (inhibition of efflux pump activity)” value [1] was “- ^f”, the IC50 (NDM-1) was greater than 50 µM and the IC50 (VIM-2) was greater than 100 µM. For the same compound, the IC50 (KPC-2) was greater than 50 µM, the IC50 (AmpC) was greater than 50 µM and the IC50 (OXA-48) was greater than 100 µM. For the same compound, the “FD (fold decrease in the MIC of ATM upon combination with the compound)” value [2] was 1 and the MIC [2] was greater than 256 mg/L.
`O=c1c(OCCC2CCCCC2)c(-c2ccc(F)c(F)c2)oc2cc(O)cc(O)c12` [Compound 3] was tested, and the “EPi (inhibition of efflux pump activity)” value [1] was “↑↑↑ ^e”, the IC50 (AmpC) was 15.3 ± 1.5 µM and the “FD (fold decrease in the MIC of ATM upon combination with the compound)” value [2] was 4. It also gave an MIC [2] greater than 256 mg/L.
`CO/N=C(\C(=O)N[C@@H]1C(=O)N2C(C(=O)[O-])=C(C[N+]3(C)CCCC3)CS[C@H]12)c1csc(N)n1` [FEP, cefepime, reference compound] was tested, and the Susceptibility category (PA-014, blaGES) was “R”, the Susceptibility category (PA-034, blaNDM) was “R” and the Susceptibility category (PA-032, blaIMP) was “R”. For the same compound, the Susceptibility category (PA-029, blaIMP) was “R”, the Susceptibility category (PA-031, blaNDM) was “R” and the Susceptibility category (PA-028, blaNDM) was “R”. The Susceptibility category (PA-009, blaGES) was “R”, the Susceptibility category (PA-002, blaIMP) was “R” and the MIC (PA-002, blaIMP; [3]) was greater than 16 mg/L. The Susceptibility category (PA-042, blaIMP/NDM) was “R”, the MIC (PA-042, blaIMP/NDM; [3]) was greater than 16 mg/L and the Susceptibility category (PA-030, blaIMP) was “R”. The Susceptibility category (PA-026, blaNDM) was “S”, the MIC (PA-026, blaNDM; [3]) was 8 mg/L and the Susceptibility category (PA-016, blaIMP) was “R”. For the same compound, the Susceptibility category (PA-038, blaNDM) was “R”, the Susceptibility category (PA-033, blaNDM) was “R” and the Susceptibility category (PA-027, blaIMP) was “R”. For the same compound, the Susceptibility category (PA-044, blaNDM) was “R”, the Susceptibility category (PA-035, blaGES) was “S” and the MIC (PA-035, blaGES; [3]) was 4 mg/L. For the same compound, the Susceptibility category (PA-041, blaNDM) was “R”, the Susceptibility category (PA-021, blaIMP) was “R” and the Susceptibility category ([2]; Table S2) was “R”. For the same compound, the Susceptibility category (PA-040, blaNDM) was “R”, the Susceptibility category (PA-037, blaIMP/NDM) was “R” and the Susceptibility category (PA-036, blaNDM) was “R”. The Susceptibility category (PA-025, blaNDM) was “R”, the Susceptibility category (PA-003, blaVIM) was “R” and the MIC (PA-003, blaVIM; [3]) was greater than 16 mg/L. For the same compound, the Susceptibility category (PA-039, blaNDM) was “R”.
